Reference: patent US20260193272A1, “SELENIUM CONTAINING HETEROCYCLE COMPOUNDS AND USE THEREOF” (HELIOS HUAMING BIOPHARMA CO., LTD., priority 2022, published 2026)
Read-outs that look alike come from different tables or passages of the source.

Target: T1, PAD4 enzyme (Homo sapiens, UniProt Q9UM07)
T1 construct: PAD4 enzyme was diluted to 30 nM in Assay Buffer
Experiment: In-vitro measurement for enzymatic PAD4 citrullination inhibition activity (ammonia release)
Type: biochemical
Procedure: Citrullination was detected via ammonia release based on published methodology (Nature Chemical Biology, 2015, 11: 189-191).
PAD4 enzyme was diluted to 30 nM in Assay Buffer (100 mM HEPES, 50 mM NaCl, 2 mM DTT, 0.6 mg/ml BSA, pH 8) and added to wells containing various concentrations of compound or DMSO vehicle (0.8% final) in a high-volume black 96-well plate (Greiner). Following a 60-min preincubation at 27° C., the reaction was initiated by the addition of substrate (3 mM BAEE in 100 mM HEPES, 50 mM NaCl, […] CaCl2, 2 mM DTT, pH 8). The reaction was stopped after 90 min by the addition of stop/detection buffer containing 50 mM EDTA, 2.6 mM o-phthalaldehyde and 2.6 mM DTT. Assays were incubated at 27° C. for 120 min before measuring fluorescence (λex 410/λem 476) on an Envision plate reader (PerkinElmer). After which IC50 values were calculated using GraphPad Prism 8.0.

[1] = direct comparison of prior art and selenium containing compounds, read-out: IC50 for enzymatic PAD4 citrullination inhibition
[2] = read-out: IC50 of inhibition enzymatic activity of PAD4 (Colorimetric assays, Nature Chemical Biology, 2015, 11: 189-191)

T1 sequence (Q9UM07 whole entry): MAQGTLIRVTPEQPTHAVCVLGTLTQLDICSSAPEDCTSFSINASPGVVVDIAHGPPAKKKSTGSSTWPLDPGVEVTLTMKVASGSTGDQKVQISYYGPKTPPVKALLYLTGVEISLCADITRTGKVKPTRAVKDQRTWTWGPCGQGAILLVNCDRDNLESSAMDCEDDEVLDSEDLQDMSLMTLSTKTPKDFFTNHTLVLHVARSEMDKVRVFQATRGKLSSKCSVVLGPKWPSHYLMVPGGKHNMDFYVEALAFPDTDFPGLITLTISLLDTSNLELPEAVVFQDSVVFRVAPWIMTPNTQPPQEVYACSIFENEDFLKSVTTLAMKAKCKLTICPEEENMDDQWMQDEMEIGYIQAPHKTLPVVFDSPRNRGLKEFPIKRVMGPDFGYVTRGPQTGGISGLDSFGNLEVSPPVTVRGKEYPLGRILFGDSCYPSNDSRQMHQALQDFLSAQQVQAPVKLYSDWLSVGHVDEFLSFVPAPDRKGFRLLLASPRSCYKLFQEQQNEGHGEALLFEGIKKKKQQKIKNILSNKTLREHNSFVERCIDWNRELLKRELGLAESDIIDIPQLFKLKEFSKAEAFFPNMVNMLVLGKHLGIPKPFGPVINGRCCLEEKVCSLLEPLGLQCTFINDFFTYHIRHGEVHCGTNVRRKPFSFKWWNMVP

IC50 [1] [nM]	IC50 [2] [nM]	Compound
272		COc1cc(C(=O)N2C[C@H]3CC[C@@H]2[C@@H]3N)cc2nc(-c3cc4sc(C)cc4n3CC3CC3)n(C)c12 [Cpd-27, reference compound]
66.8		COc1cc(C(=O)N2CCC[C@@H](N)C2)cc2nc(-c3cc4sc(C5CC5)nc4n3CC3CC3)n(C)c12 [Cpd-118, reference compound]
	≤ 50	CCc1nc2c(cc(-c3nc4cc(C(=O)N5C[C@H]6CC[C@@H]5[C@@H]6N)cc(OC)c4n3C)n2CC2CC2)[se]1 [HH-1]
	≤ 50	CCc1nc2c(cc(-c3nc4cc(C(=O)N5C[C@H](N)CC[C@@H]5C)cc(OC)c4n3C)n2CC2CC2)[se]1 [HH-2]
	≤ 50	CCc1nc2c(cc(-c3nc4cc(C(=O)N5C[C@H](N)C[C@@H](F)C5)cc(OC)c4n3C)n2CC2CC2)[se]1 [HH-3]
22.4	≤ 50	COc1cc(C(=O)N2CCC[C@@H](N)C2)cc2nc(-c3cc4[se]c(C5CC5)nc4n3CC3CC3)n(C)c12 [HH-4]
	≤ 50	COc1cc(C(=O)N2C[C@H](N)C[C@@H](F)C2)cc2nc(-c3cc4[se]c(C5CC5)nc4n3CC3CC3)n(C)c12 [HH-5]
	≤ 50	COc1cc(C(=O)N2C[C@H](N)CC[C@@H]2C)cc2nc(-c3cc4[se]c(C5CC5)nc4n3CC3CC3)n(C)c12 [HH-6]
	≤ 50	COc1cc(C(=O)N2C[C@H]3CC[C@@H]2[C@@H]3N)cc2nc(-c3cc4[se]c(C5CC5)nc4n3CC3CC3)n(C)c12 [HH-7]
	≤ 50	COc1cc(C(=O)N2C[C@H](N)CC[C@@H]2C)cc2nc(-c3cc4[se]c(C)nc4n3CC3CC3)n(C)c12 [HH-8]
	≤ 50	COc1cc(C(=O)N2C[C@H]3CC[C@@H]2[C@@H]3N)cc2nc(-c3cc4[se]c(C)nc4n3CC3CC3)n(C)c12 [HH-9]
	≤ 50	COc1cc(C(=O)N2C[C@H](N)C[C@@H](F)C2)cc2nc(-c3cc4[se]c(C)nc4n3CC3CC3)n(C)c12 [HH-10]
	100 to 500	COc1cc(C(=O)N2CC[C@@H](O)[C@@H](N)C2)cc2nc(-c3cc4[se]c(C)nc4n3CC3CC3)n(C)c12 [HH-11]
	≤ 50	COc1cc(C(=O)N2CCC[C@@H](N)C2)cc2nc(-c3cc4[se]c(C)nc4n3CC3CC3)n(C)c12 [HH-12]
	> 500	COc1cc(C(=O)N2C[C@H](N)CC(F)(F)C2)cc2nc(-c3cc4[se]c(C)nc4n3CC3CC3)n(C)c12 [HH-13]
	100 to 500	COc1cc(C(=O)N2CC[C@@H](F)[C@@H](N)C2)cc2nc(-c3cc4[se]c(C)nc4n3CC3CC3)n(C)c12 [HH-14]
	≤ 50	COc1cc(C(=O)N2C[C@H](N)CC[C@@H]2C)cc2nc(-c3cc4[se]c(C)nc4n3CC3CCC3)n(C)c12 [HH-15]
	≤ 50	COc1cc(C(=O)N2C[C@H]3CC[C@@H]2[C@@H]3N)cc2nc(-c3cc4[se]c(C)nc4n3CC3CCC3)n(C)c12 [HH-16]
	≤ 50	COc1cc(C(=O)N2CCC[C@@H](N)C2)cc2nc(-c3cc4[se]c(C)nc4n3CC3CCC3)n(C)c12 [HH-17]
	≤ 50	COc1cc(C(=O)N2C[C@H](N)C[C@@H](F)C2)cc2nc(-c3cc4[se]c(C)nc4n3CC3CCC3)n(C)c12 [HH-18]
	100 to 500	CCn1c(-c2nc3cc(C(=O)N4C[C@H](N)CC[C@@H]4C)cc(OC)c3n2C)cc2[se]c(C)nc21 [HH-19]
	100 to 500	CCn1c(-c2nc3cc(C(=O)N4C[C@H]5CC[C@@H]4[C@@H]5N)cc(OC)c3n2C)cc2[se]c(C)nc21 [HH-20]
	100 to 500	CCn1c(-c2nc3cc(C(=O)N4C[C@H](N)C[C@@H](F)C4)cc(OC)c3n2C)cc2[se]c(C)nc21 [HH-21]
	100 to 500	COc1cc(C(=O)N2C[C@H](N)CC[C@@H]2C)cc2nc(-c3cc4[se]c(C)nc4n3CC(C)(C)C)n(C)c12 [HH-22]
	100 to 500	COc1cc(C(=O)N2C[C@H](N)CC[C@@H]2C)cc2nc(-c3cc4[se]c(C)nc4n3CC(F)(F)F)n(C)c12 [HH-23]
	50 to 100	COc1cc(C(=O)N2C[C@H](N)CC[C@@H]2C)cc2nc(-c3cc4[se]c(C5CCNCC5)nc4n3CC3CC3)n(C)c12 [HH-35]

IC50 [1] [nM]	IC50 [2] [nM]	Compound
	100 to 500	COc1cc(C(=O)N2C[C@H](N)C[C@@H](F)C2)cc2nc(-c3cc4[se]c(C5CCNCC5)nc4n3CC3CC3)n(C)c12 [HH-36]
	100 to 500	COc1cc(C(=O)N2C[C@H]3CC[C@@H]2[C@@H]3N)cc2nc(-c3cc4[se]c(C5CCNCC5)nc4n3CC3CC3)n(C)c12 [HH-37]
	100 to 500	COc1ccccc1-c1nc2c(cc(-c3nc4cc(C(=O)N5C[C@H](N)CC[C@@H]5C)cc(OC)c4n3C)n2CC2CC2)[se]1 [HH-38]
	> 500	COc1ccccc1-c1nc2c(cc(-c3nc4cc(C(=O)N5C[C@H]6CC[C@@H]5[C@@H]6N)cc(OC)c4n3C)n2CC2CC2)[se]1 [HH-39]
	100 to 500	COc1ccc(-c2nc3c(cc(-c4nc5cc(C(=O)N6C[C@H](N)C[C@@H](F)C6)cc(OC)c5n4C)n3CC3CC3)[se]2)cc1 [HH-40]
	100 to 500	COc1cc(C(=O)N2C[C@H](N)CC[C@@H]2C)cc2nc(-c3cc4[se]c(-c5ccncc5)nc4n3CC3CC3)n(C)c12 [HH-41]
	100 to 500	COc1cc(C(=O)N2C[C@H](N)C[C@@H](F)C2)cc2nc(-c3cc4[se]c(-c5ccncc5)nc4n3CC3CC3)n(C)c12 [HH-42]
	100 to 500	COc1cc(C(=O)N2C[C@H](N)CC[C@@H]2C)cc2nc(-c3cc4[se]c(-c5ccccn5)nc4n3CC3CC3)n(C)c12 [HH-43]
	100 to 500	COc1cc(C(=O)N2C[C@H]3CC[C@@H]2[C@@H]3N)cc2nc(-c3cc4[se]c(-c5ccccn5)nc4n3CC3CC3)n(C)c12 [HH-44]
	> 500	COc1cc(C(=O)N2C[C@H](N)CC[C@@H]2C)cc2nc(-c3cc4[se]c(-c5ccc(C)cc5)nc4n3CC3CC3)n(C)c12 [HH-45]
	> 500	COc1cc(C(=O)N2C[C@H](N)C[C@@H](F)C2)cc2nc(-c3cc4[se]c(-c5cccc(C)c5)nc4n3CC3CC3)n(C)c12 [HH-46]
	50 to 100	COc1cc(C(=O)N2C[C@H](N)C[C@@H](F)C2)cc2nc(-c3cc4[se]ccc4n3CC3CC3)n(C)c12 [HH-47]
	100 to 500	COc1cc(C(=O)N2C[C@H](N)CC[C@@H]2C)cc2nc(-c3cc4[se]ccc4n3CC3CC3)n(C)c12 [HH-48]
	≤ 50	COc1cc(C(=O)N2C[C@H](N)CC[C@@H]2C)cc2nc(-c3cc4[se]c(C)cc4n3CC3CC3)n(C)c12 [HH-49]
	50 to 100	COc1cc(C(=O)N2CCC[C@@H](N)C2)cc2nc(-c3cc4[se]c(C)cc4n3CC3CC3)n(C)c12 [HH-50]
	≤ 50	COc1cc(C(=O)N2C[C@H](N)C[C@@H](F)C2)cc2nc(-c3cc4[se]c(C)cc4n3CC3CC3)n(C)c12 [HH-51]
25.1	≤ 50	COc1cc(C(=O)N2C[C@H]3CC[C@@H]2[C@@H]3N)cc2nc(-c3cc4[se]c(C)cc4n3CC3CC3)n(C)c12 [HH-52]
	50 to 100	COc1cc(C(=O)N2C[C@H](N)C[C@@H](F)C2)cc2nc(-c3cc4[se]c(C5CCCN5)cc4n3CC3CC3)n(C)c12 (some centres unmarked) [HH-53]
	50 to 100	COc1cc(C(=O)N2C[C@H](N)CC[C@@H]2C)cc2nc(-c3cc4[se]c(C5CCCN5)cc4n3CC3CC3)n(C)c12 (some centres unmarked) [HH-54]
	100 to 500	COc1cc(C(=O)N2C[C@H]3CC[C@@H]2[C@@H]3N)cc2nc(-c3cc4[se]c(C5CCCN5)cc4n3CC3CC3)n(C)c12 (some centres unmarked) [HH-55]
	100 to 500	COc1cc(C(=O)N2C[C@H]3CC[C@@H]2[C@@H]3N)cc2nc(-c3cc4[se]c(-c5ccc(C)cc5)cc4n3CC3CC3)n(C)c12 [HH-56]
	100 to 500	COc1cc(C(=O)N2C[C@H]3CC[C@@H]2[C@@H]3N)cc2nc(-c3cc4[se]c(-c5cccc(C)c5)cc4n3CC3CC3)n(C)c12 [HH-57]
	100 to 500	COc1ccc(-c2cc3c(cc(-c4nc5cc(C(=O)N6C[C@H]7CC[C@@H]6[C@@H]7N)cc(OC)c5n4C)n3CC3CC3)[se]2)cc1 [HH-58]
	≤ 50	COc1ccccc1-c1cc2c(cc(-c3nc4cc(C(=O)N5C[C@H](N)CC[C@@H]5C)cc(OC)c4n3C)n2CC2CC2)[se]1 [HH-59]
	100 to 500	COc1ccccc1-c1cc2c(cc(-c3nc4cc(C(=O)N5C[C@H](N)C[C@@H](F)C5)cc(OC)c4n3C)n2CC2CC2)[se]1 [HH-60]
	100 to 500	COc1cc(C(=O)N2C[C@H]3CC[C@@H]2[C@@H]3N)cc2nc(-c3cc4[se]c(-c5ccccn5)cc4n3CC3CC3)n(C)c12 [HH-61]

Compound	IC50 [1] [nM]	IC50 [2] [nM]
COc1ccccc1Cn1c(-c2nc3cc(C(=O)N4C[C@H](N)CC[C@@H]4C)cc(OC)c3n2C)cc2[se]c(C)nc21 [HH-26]		100 to 500
COc1cccc(Cn2c(-c3nc4cc(C(=O)N5C[C@H](N)CC[C@@H]5C)cc(OC)c4n3C)cc3[se]c(C)nc32)c1 [HH-27]		100 to 500
COc1cc(C(=O)N2C[C@H](N)CC[C@@H]2C)cc2nc(-c3cc4[se]c(C)nc4n3Cc3ccc(C(F)(F)F)cc3)n(C)c12 [HH-28]		> 500
COc1cc(C(=O)N2C[C@H](N)CC[C@@H]2C)cc2nc(-c3cc4[se]c(C)nc4n3Cc3ccncc3)n(C)c12 [HH-29]		100 to 500
COc1cc(C(=O)N2C[C@H]3CC[C@@H]2[C@@H]3N)cc2nc(-c3cc4[se]c(C)nc4n3Cc3ccncc3)n(C)c12 [HH-30]		100 to 500
COc1cc(C(=O)N2C[C@H](N)CC[C@@H]2C)cc2nc(-c3cc4[se]c(C)nc4n3Cc3ccccn3)n(C)c12 [HH-31]		100 to 500
COc1cc(C(=O)N2C[C@H](N)CC[C@@H]2C)cc2nc(-c3cc4[se]c(C)nc4n3Cc3ccoc3)n(C)c12 [HH-32]		100 to 500
COc1cc(C(=O)N2C[C@H](N)CC[C@@H]2C)cc2nc(-c3cc4[se]c(C)nc4n3Cc3ccsc3)n(C)c12 [HH-34]		50 to 100
